{"source": "paper PMC6407913", "about": "“DREADD Agonist 21 Is an Effective Agonist for Muscarinic-Based DREADDs in Vitro and in Vivo” (ACS Pharmacology & Translational Science, 2018)", "format_in_all_cases": "cell-based", "key": {"[1]": {"target": "T1, 318 nonolfactory human GPCRs (Homo sapiens, UniProt P30939)", "T1 construct": "expressed in transfected cells; host or cells: HTLA cells, transient", "T1 sequence (P30939 whole entry)": "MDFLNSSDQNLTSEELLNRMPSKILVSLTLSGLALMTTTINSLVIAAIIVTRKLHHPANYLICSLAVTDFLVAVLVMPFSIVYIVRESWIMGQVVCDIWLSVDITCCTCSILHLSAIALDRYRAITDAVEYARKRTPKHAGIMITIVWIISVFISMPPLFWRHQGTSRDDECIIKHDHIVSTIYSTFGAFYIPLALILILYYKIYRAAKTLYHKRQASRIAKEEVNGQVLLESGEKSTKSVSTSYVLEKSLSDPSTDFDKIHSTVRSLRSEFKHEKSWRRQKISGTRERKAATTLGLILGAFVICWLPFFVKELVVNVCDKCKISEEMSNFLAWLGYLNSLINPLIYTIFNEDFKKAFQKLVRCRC", "details": "HTR1F; C21 5 µM"}, "[2]": {"target": "318 nonolfactory human GPCRs (Homo sapiens, UniProt P32239)", "sequence (P32239 whole entry)": "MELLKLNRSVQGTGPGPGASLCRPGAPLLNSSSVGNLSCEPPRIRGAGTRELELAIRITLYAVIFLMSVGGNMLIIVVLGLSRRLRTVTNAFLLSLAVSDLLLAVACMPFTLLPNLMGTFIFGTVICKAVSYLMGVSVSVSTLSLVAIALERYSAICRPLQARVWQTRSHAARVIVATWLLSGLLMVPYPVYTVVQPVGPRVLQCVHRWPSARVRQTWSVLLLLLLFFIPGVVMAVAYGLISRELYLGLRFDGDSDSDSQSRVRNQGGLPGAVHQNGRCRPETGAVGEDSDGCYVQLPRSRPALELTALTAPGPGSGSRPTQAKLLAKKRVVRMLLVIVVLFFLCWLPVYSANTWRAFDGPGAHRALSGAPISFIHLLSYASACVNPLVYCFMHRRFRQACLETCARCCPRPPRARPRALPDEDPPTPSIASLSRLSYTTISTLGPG", "details": "CCKBR; C21 5 µM"}, "[3]": {"target": "318 nonolfactory human GPCRs (Homo sapiens, UniProt Q8TDS4)", "sequence (Q8TDS4 whole entry)": "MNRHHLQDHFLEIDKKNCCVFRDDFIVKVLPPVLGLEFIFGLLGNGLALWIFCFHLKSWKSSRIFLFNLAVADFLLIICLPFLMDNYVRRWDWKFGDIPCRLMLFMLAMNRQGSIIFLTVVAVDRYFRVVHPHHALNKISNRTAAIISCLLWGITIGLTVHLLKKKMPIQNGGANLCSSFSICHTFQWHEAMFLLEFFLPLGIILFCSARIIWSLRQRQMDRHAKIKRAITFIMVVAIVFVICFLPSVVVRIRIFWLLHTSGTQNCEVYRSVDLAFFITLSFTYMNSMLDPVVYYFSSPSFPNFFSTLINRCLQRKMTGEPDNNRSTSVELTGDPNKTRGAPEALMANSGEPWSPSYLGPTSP", "details": "HCA2; C21 5 µM"}, "[4]": {"target": "T2, 318 nonolfactory human GPCRs (Homo sapiens, UniProt Q8TDV0)", "T2 construct": "expressed in transfected cells; host or cells: HTLA cells, transient", "details": "GPR151; C21 5 µM"}, "[5]": {"target": "T3, 318 nonolfactory human GPCRs (Homo sapiens, UniProt P04201)", "T3 construct": "expressed in transfected cells; host or cells: HTLA cells, transient", "details": "MAS1; C21 5 µM"}, "[6]": {"target": "318 nonolfactory human GPCRs (Homo sapiens, UniProt Q9UPC5)", "sequence (Q9UPC5 whole entry)": "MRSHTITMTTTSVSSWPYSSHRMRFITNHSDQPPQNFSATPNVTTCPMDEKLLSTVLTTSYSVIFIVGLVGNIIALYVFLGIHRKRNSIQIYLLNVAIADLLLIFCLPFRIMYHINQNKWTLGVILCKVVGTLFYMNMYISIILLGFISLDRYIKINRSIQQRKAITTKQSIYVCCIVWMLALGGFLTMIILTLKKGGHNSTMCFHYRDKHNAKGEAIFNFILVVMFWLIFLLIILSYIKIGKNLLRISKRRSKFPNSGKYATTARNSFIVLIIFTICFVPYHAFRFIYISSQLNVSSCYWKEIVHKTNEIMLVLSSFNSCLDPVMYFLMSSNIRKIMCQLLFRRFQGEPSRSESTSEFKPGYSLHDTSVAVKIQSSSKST", "details": "GPR34; C21 5 µM"}, "[7]": {"target": "318 nonolfactory human GPCRs (Homo sapiens, UniProt P14416)", "sequence (P14416 whole entry)": "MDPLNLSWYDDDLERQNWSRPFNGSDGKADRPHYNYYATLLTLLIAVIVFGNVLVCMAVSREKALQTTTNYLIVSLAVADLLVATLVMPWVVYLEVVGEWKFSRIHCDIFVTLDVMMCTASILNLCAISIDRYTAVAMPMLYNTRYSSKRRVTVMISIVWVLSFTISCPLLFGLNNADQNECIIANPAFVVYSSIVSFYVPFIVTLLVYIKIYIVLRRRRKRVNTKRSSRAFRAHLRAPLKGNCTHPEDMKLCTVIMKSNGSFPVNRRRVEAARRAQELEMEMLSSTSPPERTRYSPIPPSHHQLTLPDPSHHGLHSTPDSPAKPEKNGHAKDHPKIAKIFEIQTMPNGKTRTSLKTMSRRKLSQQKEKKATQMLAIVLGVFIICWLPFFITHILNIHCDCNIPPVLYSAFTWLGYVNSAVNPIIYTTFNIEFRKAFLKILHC", "details": "DRD2; C21 5 µM"}, "[8]": {"target": "T4, 318 nonolfactory human GPCRs (Homo sapiens, UniProt P32247)", "T4 construct": "expressed in transfected cells; host or cells: HTLA cells, transient", "details": "BB3; C21 5 µM"}, "[9]": {"target": "T5, 318 nonolfactory human GPCRs (Homo sapiens, UniProt P51685)", "T5 construct": "expressed in transfected cells; host or cells: HTLA cells, transient", "details": "CCR8; C21 5 µM"}, "[10]": {"target": "T6, 318 nonolfactory human GPCRs (Homo sapiens, UniProt P33032)", "T6 construct": "expressed in transfected cells; host or cells: HTLA cells, transient", "details": "MC5R; C21 5 µM"}, "[11]": {"target": "T7, 318 nonolfactory human GPCRs (Homo sapiens, UniProt Q96P68)", "T7 construct": "expressed in transfected cells; host or cells: HTLA cells, transient", "details": "OXGR1; C21 5 µM"}, "[12]": {"target": "T8, 318 nonolfactory human GPCRs (Homo sapiens, UniProt Q96LB2)", "T8 construct": "expressed in transfected cells; host or cells: HTLA cells, transient", "details": "MRGPRX1; C21 5 µM"}, "[13]": {"target": "T9, 318 nonolfactory human GPCRs (Homo sapiens, UniProt P25116)", "T9 construct": "expressed in transfected cells; host or cells: HTLA cells, transient", "T9 sequence (P25116 22-425)": "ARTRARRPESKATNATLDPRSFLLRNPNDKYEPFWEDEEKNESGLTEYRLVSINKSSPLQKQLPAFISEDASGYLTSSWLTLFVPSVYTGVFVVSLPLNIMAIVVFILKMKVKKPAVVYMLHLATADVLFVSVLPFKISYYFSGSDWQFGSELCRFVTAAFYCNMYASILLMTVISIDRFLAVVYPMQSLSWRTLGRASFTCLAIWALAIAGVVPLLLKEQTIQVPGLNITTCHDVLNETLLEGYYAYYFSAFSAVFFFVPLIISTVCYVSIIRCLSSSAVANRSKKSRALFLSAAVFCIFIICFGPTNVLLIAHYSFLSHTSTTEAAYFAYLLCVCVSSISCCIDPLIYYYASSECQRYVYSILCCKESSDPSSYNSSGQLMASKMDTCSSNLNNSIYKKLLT", "details": "F2R; C21 5 µM"}, "[14]": {"target": "T10, 318 nonolfactory human GPCRs (Homo sapiens, UniProt Q96AM1)", "T10 construct": "expressed in transfected cells; host or cells: HTLA cells, transient", "details": "MRGPRF; C21 5 µM"}, "[15]": {"target": "318 nonolfactory human GPCRs (Homo sapiens, UniProt P35462)", "details": "DRD3; C21 5 µM"}, "[16]": {"target": "T11, 318 nonolfactory human GPCRs (Homo sapiens, UniProt Q9P296)", "T11 construct": "expressed in transfected cells; host or cells: HTLA cells, transient", "details": "GPR77; C21 5 µM"}, "[17]": {"target": "T12, 318 nonolfactory human GPCRs (Homo sapiens, UniProt P28222)", "T12 construct": "expressed in transfected cells; host or cells: HTLA cells, transient", "details": "HTR1B; C21 5 µM"}, "[18]": {"target": "T13, 318 nonolfactory human GPCRs (Homo sapiens, UniProt P08908)", "T13 construct": "expressed in transfected cells; host or cells: HTLA cells, transient", "details": "HTR1A; C21 5 µM"}, "[19]": {"target": "T14, 318 nonolfactory human GPCRs (Homo sapiens, UniProt Q14439)", "T14 construct": "expressed in transfected cells; host or cells: HTLA cells, transient", "details": "GPR176; C21 5 µM"}, "[20]": {"target": "318 nonolfactory human GPCRs (Homo sapiens, UniProt P25025)", "details": "CXCR2; C21 5 µM"}, "[21]": {"target": "T15, 318 nonolfactory human GPCRs (Homo sapiens, UniProt P60893)", "T15 construct": "expressed in transfected cells; host or cells: HTLA cells, transient", "details": "GPR85; C21 5 µM"}, "[22]": {"target": "T16, 318 nonolfactory human GPCRs (Homo sapiens, UniProt Q9H1Y3)", "T16 construct": "expressed in transfected cells; host or cells: HTLA cells, transient", "details": "OPN3; C21 5 µM"}, "[23]": {"target": "T17, 318 nonolfactory human GPCRs (Homo sapiens, UniProt P25024)", "T17 construct": "expressed in transfected cells; host or cells: HTLA cells, transient", "T17 sequence (P25024 whole entry)": "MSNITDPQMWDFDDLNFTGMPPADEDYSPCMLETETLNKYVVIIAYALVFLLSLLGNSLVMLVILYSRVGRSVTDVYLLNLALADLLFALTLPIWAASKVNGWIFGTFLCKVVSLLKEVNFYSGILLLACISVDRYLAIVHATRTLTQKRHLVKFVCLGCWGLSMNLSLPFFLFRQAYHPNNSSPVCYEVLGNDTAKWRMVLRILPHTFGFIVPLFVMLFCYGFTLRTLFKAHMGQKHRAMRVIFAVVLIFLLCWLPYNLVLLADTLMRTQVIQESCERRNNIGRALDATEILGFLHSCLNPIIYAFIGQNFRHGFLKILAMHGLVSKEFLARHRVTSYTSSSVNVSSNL", "details": "CXCR1; C21 5 µM"}, "[24]": {"target": "T18, 318 nonolfactory human GPCRs (Homo sapiens, UniProt Q96P67)", "T18 construct": "expressed in transfected cells; host or cells: HTLA cells, transient", "details": "GPR82; C21 5 µM"}, "[25]": {"target": "T19, 318 nonolfactory human GPCRs (Homo sapiens, UniProt Q15760)", "T19 construct": "expressed in transfected cells; host or cells: HTLA cells, transient", "details": "GPR19; C21 5 µM"}, "[26]": {"target": "T20, 318 nonolfactory human GPCRs (Homo sapiens, UniProt P34969)", "T20 construct": "expressed in transfected cells; host or cells: HTLA cells, transient", "T20 sequence (P34969 whole entry)": "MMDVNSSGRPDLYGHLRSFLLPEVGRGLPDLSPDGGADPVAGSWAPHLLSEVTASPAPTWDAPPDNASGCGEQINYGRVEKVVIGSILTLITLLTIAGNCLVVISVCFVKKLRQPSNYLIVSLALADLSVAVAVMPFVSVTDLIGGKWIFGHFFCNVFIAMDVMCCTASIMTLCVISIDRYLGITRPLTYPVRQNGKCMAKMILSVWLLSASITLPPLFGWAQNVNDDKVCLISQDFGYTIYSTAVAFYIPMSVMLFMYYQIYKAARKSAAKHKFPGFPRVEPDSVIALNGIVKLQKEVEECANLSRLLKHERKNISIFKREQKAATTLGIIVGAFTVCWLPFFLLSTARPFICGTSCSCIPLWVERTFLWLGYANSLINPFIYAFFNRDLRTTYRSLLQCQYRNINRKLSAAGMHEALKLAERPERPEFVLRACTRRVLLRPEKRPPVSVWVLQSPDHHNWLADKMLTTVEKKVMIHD", "details": "HTR7; C21 5 µM"}, "[27]": {"target": "T21, 318 nonolfactory human GPCRs (Homo sapiens, UniProt P51582)", "T21 construct": "expressed in transfected cells; host or cells: HTLA cells, transient", "details": "P2RY4; C21 5 µM"}, "[28]": {"target": "T22, 318 nonolfactory human GPCRs (Homo sapiens, UniProt Q9BXC1)", "T22 construct": "expressed in transfected cells; host or cells: HTLA cells, transient", "T22 sequence (Q9BXC1 whole entry)": "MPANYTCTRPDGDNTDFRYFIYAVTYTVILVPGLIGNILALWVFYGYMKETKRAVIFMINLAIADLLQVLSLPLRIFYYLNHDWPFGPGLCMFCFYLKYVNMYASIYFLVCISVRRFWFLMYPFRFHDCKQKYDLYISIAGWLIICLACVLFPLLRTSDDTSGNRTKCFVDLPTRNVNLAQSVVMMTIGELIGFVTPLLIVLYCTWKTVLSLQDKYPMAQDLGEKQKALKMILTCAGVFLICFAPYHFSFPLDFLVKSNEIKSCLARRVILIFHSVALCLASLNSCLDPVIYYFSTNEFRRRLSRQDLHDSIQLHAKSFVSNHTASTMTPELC", "details": "GPR174; C21 5 µM"}, "[29]": {"target": "T23, 318 nonolfactory human GPCRs (Homo sapiens, UniProt Q14330)", "T23 construct": "expressed in transfected cells; host or cells: HTLA cells, transient", "T23 sequence (Q14330 whole entry)": "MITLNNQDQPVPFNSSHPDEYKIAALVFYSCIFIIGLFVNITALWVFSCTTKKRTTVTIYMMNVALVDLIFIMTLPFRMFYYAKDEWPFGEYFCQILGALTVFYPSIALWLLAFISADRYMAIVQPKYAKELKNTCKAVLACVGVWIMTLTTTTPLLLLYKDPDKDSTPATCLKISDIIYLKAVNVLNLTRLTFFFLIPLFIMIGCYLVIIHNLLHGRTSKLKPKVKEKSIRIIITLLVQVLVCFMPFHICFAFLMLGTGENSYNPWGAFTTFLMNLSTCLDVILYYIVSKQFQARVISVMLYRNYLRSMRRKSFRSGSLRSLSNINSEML", "details": "GPR18; C21 5 µM"}, "[30]": {"target": "T24, 318 nonolfactory human GPCRs (Homo sapiens, UniProt Q86SQ4)", "T24 construct": "expressed in transfected cells; host or cells: HTLA cells, transient", "details": "GPR126; C21 5 µM"}, "[31]": {"target": "T25, 318 nonolfactory human GPCRs (Homo sapiens, UniProt Q16538)", "T25 construct": "expressed in transfected cells; host or cells: HTLA cells, transient", "T25 sequence (Q16538 whole entry)": "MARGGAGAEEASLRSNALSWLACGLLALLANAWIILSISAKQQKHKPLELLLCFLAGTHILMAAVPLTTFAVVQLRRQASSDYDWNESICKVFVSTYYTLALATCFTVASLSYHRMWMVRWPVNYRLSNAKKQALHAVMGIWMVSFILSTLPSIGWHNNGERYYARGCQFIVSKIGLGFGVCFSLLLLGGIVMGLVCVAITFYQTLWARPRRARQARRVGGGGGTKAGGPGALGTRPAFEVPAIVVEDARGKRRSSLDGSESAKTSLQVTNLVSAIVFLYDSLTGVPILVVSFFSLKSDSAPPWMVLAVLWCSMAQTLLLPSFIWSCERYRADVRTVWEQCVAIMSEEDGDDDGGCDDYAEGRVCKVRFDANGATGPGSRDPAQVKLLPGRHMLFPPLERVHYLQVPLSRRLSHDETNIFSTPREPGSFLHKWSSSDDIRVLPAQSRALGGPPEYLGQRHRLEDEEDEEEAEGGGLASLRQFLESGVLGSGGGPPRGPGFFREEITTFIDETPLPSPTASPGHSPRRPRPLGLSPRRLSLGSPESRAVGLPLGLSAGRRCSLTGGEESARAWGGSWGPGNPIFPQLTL", "details": "GPR162; C21 5 µM"}, "[32]": {"target": "318 nonolfactory human GPCRs (Homo sapiens, UniProt Q96PE1)", "details": "GPR124; C21 5 µM"}, "[33]": {"target": "T26, 318 nonolfactory human GPCRs (Homo sapiens, UniProt P47898)", "T26 construct": "expressed in transfected cells; host or cells: HTLA cells, transient", "details": "HTR5; C21 5 µM"}, "[34]": {"target": "T27, 318 nonolfactory human GPCRs (Homo sapiens, UniProt Q15391)", "T27 construct": "expressed in transfected cells; host or cells: HTLA cells, transient", "T27 sequence (Q15391 whole entry)": "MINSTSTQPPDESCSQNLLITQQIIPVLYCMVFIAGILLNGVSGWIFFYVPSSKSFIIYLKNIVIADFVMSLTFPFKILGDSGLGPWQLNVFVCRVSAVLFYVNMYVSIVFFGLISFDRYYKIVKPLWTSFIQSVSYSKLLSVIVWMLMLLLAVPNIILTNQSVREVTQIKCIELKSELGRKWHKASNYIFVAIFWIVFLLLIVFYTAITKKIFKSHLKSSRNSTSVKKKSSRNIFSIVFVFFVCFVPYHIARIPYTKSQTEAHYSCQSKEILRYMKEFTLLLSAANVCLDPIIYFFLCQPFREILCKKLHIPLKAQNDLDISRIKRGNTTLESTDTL", "details": "P2RY14; C21 5 µM"}}, "note": "Several values for one entry are separate records, joined by “and”; a condition that tells them apart may be missing. Identical values can stand only once."}
{"smiles": "c1ccc2c(c1)N=C(N1CCNCC1)c1ccccc1N2", "note": "[C21, 11-(1-piperazinyl)-5H-dibenzo[b,e][1,4]diazepine]", "values": [{"measurement": "FOLD OVER BASAL", "setting": "[1]", "result": "1.1 fold and 1 fold and 0.8 fold"}, {"measurement": "FOLD OVER BASAL", "setting": "[2]", "result": "1.8 fold and 2.1 fold and 1.9 fold and 1.2 fold"}, {"measurement": "FOLD OVER BASAL", "setting": "[3]", "result": "1.2 fold and 1.1 fold and 1.3 fold and 1.4 fold"}, {"measurement": "FOLD OVER BASAL", "setting": "[4]", "result": "0.6 fold and 0.5 fold"}, {"measurement": "FOLD OVER BASAL", "setting": "[5]", "result": "1.1 fold and 0.9 fold and 1 fold"}, {"measurement": "FOLD OVER BASAL", "setting": "[6]", "result": "1.2 fold and 1.1 fold and 1.4 fold"}, {"measurement": "FOLD OVER BASAL", "setting": "[7]", "result": "8.7 fold and 13.6 fold and 9.4 fold and 16.1 fold"}, {"measurement": "FOLD OVER BASAL", "setting": "[8]", "result": "0.9 fold and 1.3 fold and 1 fold"}, {"measurement": "FOLD OVER BASAL", "setting": "[9]", "result": "0.8 fold and 1.3 fold and 1.5 fold and 1.1 fold"}, {"measurement": "FOLD OVER BASAL", "setting": "[10]", "result": "1.2 fold and 0.9 fold and 1.3 fold and 1 fold"}, {"measurement": "FOLD OVER BASAL", "setting": "[11]", "result": "0.7 fold and 0.6 fold and 1.2 fold"}, {"measurement": "FOLD OVER BASAL", "setting": "[12]", "result": "0.6 fold and 1.2 fold"}, {"measurement": "FOLD OVER BASAL", "setting": "[13]", "result": "0.8 fold and 0.9 fold and 0.6 fold"}, {"measurement": "FOLD OVER BASAL", "setting": "[14]", "result": "1.4 fold and 1.3 fold and 1 fold and 0.7 fold"}, {"measurement": "FOLD OVER BASAL", "setting": "[15]", "result": "3.6 fold and 4.2 fold and 3.3 fold and 5.4 fold"}, {"measurement": "FOLD OVER BASAL", "setting": "[16]", "result": "0.7 fold and 0.6 fold"}, {"measurement": "FOLD OVER BASAL", "setting": "[17]", "result": "0.7 fold and 0.8 fold and 0.9 fold"}, {"measurement": "FOLD OVER BASAL", "setting": "[18]", "result": "0.5 fold and 0.4 fold and 0.3 fold"}, {"measurement": "FOLD OVER BASAL", "setting": "[19]", "result": "0.3 fold and 0.6 fold and 0.5 fold and 0.4 fold"}, {"measurement": "FOLD OVER BASAL", "setting": "[20]", "result": "0.9 fold and 1 fold"}, {"measurement": "FOLD OVER BASAL", "setting": "[21]", "result": "0.8 fold and 1.2 fold and 1 fold"}, {"measurement": "FOLD OVER BASAL", "setting": "[22]", "result": "1.1 fold and 0.7 fold and 0.9 fold and 0.6 fold"}, {"measurement": "FOLD OVER BASAL", "setting": "[23]", "result": "0.6 fold and 1 fold and 0.8 fold and 1.1 fold"}, {"measurement": "FOLD OVER BASAL", "setting": "[24]", "result": "1 fold and 0.9 fold and 1.1 fold"}, {"measurement": "FOLD OVER BASAL", "setting": "[25]", "result": "0.8 fold and 0.9 fold and 1.1 fold"}, {"measurement": "FOLD OVER BASAL", "setting": "[26]", "result": "0.9 fold and 0.8 fold and 1 fold"}, {"measurement": "FOLD OVER BASAL", "setting": "[27]", "result": "1 fold and 0.9 fold"}, {"measurement": "FOLD OVER BASAL", "setting": "[28]", "result": "0.6 fold and 0.9 fold and 0.5 fold"}, {"measurement": "FOLD OVER BASAL", "setting": "[29]", "result": "0.8 fold and 1.1 fold and 0.7 fold"}, {"measurement": "FOLD OVER BASAL", "setting": "[30]", "result": "0.3 fold and 0.4 fold"}, {"measurement": "FOLD OVER BASAL", "setting": "[31]", "result": "0.6 fold and 0.7 fold and 0.9 fold"}, {"measurement": "FOLD OVER BASAL", "setting": "[32]", "result": "1 fold and 0.7 fold"}, {"measurement": "FOLD OVER BASAL", "setting": "[33]", "result": "0.9 fold and 1 fold and 0.8 fold"}, {"measurement": "FOLD OVER BASAL", "setting": "[34]", "result": "0.9 fold and 0.7 fold and 1.1 fold and 0.8 fold"}]}
